# Measurements taken from patent US8822471B2, “Compounds, pharmaceutical compositions and uses thereof” (Boehringer Ingelheim International GmbH, priority 2011, dated 2014).
# Molecular target: T1, human GPR119 (Homo sapiens, UniProt Q8TDV5)
# T1 construct: expression vector for human GPR119 cDNA (Acc. No. NP_848566); expressed in transfected cells
# T1 sequence (Q8TDV5 1-335): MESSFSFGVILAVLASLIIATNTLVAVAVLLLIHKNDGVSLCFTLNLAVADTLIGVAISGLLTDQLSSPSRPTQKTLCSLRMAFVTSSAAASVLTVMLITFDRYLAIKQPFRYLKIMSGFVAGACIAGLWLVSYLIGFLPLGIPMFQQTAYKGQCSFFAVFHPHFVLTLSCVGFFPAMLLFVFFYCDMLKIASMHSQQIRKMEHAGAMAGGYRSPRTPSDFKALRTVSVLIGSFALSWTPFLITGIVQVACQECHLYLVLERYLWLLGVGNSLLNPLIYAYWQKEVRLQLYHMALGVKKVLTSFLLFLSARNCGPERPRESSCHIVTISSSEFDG
# Assay: AlphaScreen cAMP assay in MIN6 cells stably transfected with human GPR119
# Format: cell-based
# Details: Min-6/hGPR119 cells, AlphaScreen cAMP Assay Kit, 45 minutes incubation at room temperature
# Description: The compounds of formula I according to the invention modulate the activity of the G-protein-coupled receptor GPR119. The effect of the compounds on the activation of GPR119 and on the stimulation of intracellular cAMP concentration is determined using the AlphaScreen cAMP Assay Kit (Cat. No. #6760625R) made by PerkinElmer.
# MIN6 cells [Miyazaki J et al. Endocrinology. 1990 July; 127(1):126-32] are stably transfected with an expression vector for human GPR119 cDNA (Acc. No. NP_848566). Min-6/hGPR119 cells are cultured in DMEM, 10% FBS, 50 μM β-mercaptoethanol, 0.3 mg/mL Geniticin, 2 mM GlutaMAX at 37° C. 5% CO2. For the assay, the cells are seeded in Optiplates (white, 384-well, 160 W-barcoded, TC, sterile with lid, Cat. No. #6007688 (Perkin Elmer); 10000 cells/well; 50 μl). The plates covered with lids are then incubated for 24 hours at 37° C./5% CO2. After the medium is aspirated from the wells completely, 10 μl of the test compound are added, the compounds are diluted using stimulating buffer (140 mM NaCl, 3.6 mM KCl, 0.5 mM NaH2PO4, 0.5 mM MgSO4, 1.5 mM CaCl2, 10 mM Hepes, 5 mM NaHCO3; pH 7.4. 0.5 mM IBMX and 0.1% BSA, the final DMSO concentration is 1%). After 45 minutes incubation at room temperature (approx. 20° C.), the cAMP concentrations are determined using the AlphaScreen cAMP Assay Kit (Cat. No. #6760625R from PerkinElmer).
row,SMILES,EC50 [nM]
1,"CC(C)(CO)c1noc(N2CCC(N(C(=O)c3ccc(-c4cnco4)cc3)C3CC3)CC2)n1 [Example 58, N-Cyclopropyl-N-{1-[3-(2-hydroxy-1,1-dimethyl-ethyl)-[1,2,4]oxadiazol-5-yl]-piperidin-4-yl}-4-oxazol-5-yl-benzamide]",629
2,"CCCc1nc(N2CCC(N(C(=O)c3ccc(-c4cnco4)cc3)C3CC3)CC2)no1 [Example 59, N-Cyclopropyl-4-oxazol-5-yl-N-[1-(5-propyl-[1,2,4]oxadiazol-3-yl)-piperidin-4-yl]-benzamide]",23
3,"O=C(c1ccc(-c2cnco2)cc1)N(C1CC1)C1CCN(c2nc(CCC(F)(F)F)no2)CC1 [Example 60, N-Cyclopropyl-4-oxazol-5-yl-N-{1-[3-(3,3,3-trifluoro-propyl)-[1,2,4]oxadiazol-5-yl]-piperidin-4-yl}-benzamide]",50
4,"Cc1cnc(N2CCC(N(C(=O)c3ccc(-c4cnco4)cc3)C3CC3)CC2)cn1 [Example 61, N-Cyclopropyl-N-[1-(5-methyl-pyrazin-2-yl)-piperidin-4-yl]-4-oxazol-5-yl-benzamide]",52
5,"O=C(c1ccc(-c2cnco2)cc1)N(C1CC1)C1CCN(c2nc(CC(F)(F)F)no2)CC1 [Example 62, N-Cyclopropyl-4-oxazol-5-yl-N-{1-[3-(2,2,2-trifluoro-ethyl)-[1,2,4]oxadiazol-5-yl]-piperidin-4-yl}benzamide]",16
6,"CCc1cnc(N2CCC(N(C(=O)c3ccc(-c4cnco4)c(F)c3)C3CC3)CC2)nc1 [Example 63, N-Cyclopropyl-N-[1-(5-ethyl-pyrimidin-2-yl)-piperidin-4-yl]-3-fluoro-4-oxazol-5-yl-benzamide]",3
7,"CC(C)c1noc(N2CCC(N(C(=O)c3ccc(-c4cnco4)c(F)c3)C3CC3)CC2)n1 [Example 64, N-Cyclopropyl-3-fluoro-N-[1-(3-isopropyl-[1,2,4]oxadiazol-5-yl)-piperidin-4-yl]-4-oxazol-5-yl-benzamide]",4
8,"CCCc1noc(N2CCC(N(C(=O)c3ccc(-c4cnco4)c(F)c3)C3CC3)CC2)n1 [Example 65, N-Cyclopropyl-3-fluoro-4-oxazol-5-yl-N-[1-(3-propyl-[1,2,4]oxadiazol-5-yl)-piperidin-4-yl]-benzamide]",7
9,"Cc1cnc(N2CCC(N(C(=O)c3ccc(-c4cnco4)c(F)c3)C3CC3)CC2)cn1 [Example 66, N-Cyclopropyl-3-fluoro-N-[1-(5-methyl-pyrazin-2-yl)-piperidin-4-yl]-4-oxazol-5-yl-benzamide]",210
10,"CC(C)(C)c1noc(N2CCC(N(C(=O)c3ccc(-c4cnco4)c(F)c3)C3CC3)CC2)n1 [Example 67, N-[1-(3-tert-Butyl-[1,2,4]oxadiazol-5-yl)-piperidin-4-yl]-N-cyclopropyl-3-fluoro-4-oxazol-5-yl-benzamide]",188
11,"CCc1cnc(N2CCC(N(C(=O)c3ccc(-c4cnco4)c(F)c3)C3CC3)CC2)cn1 [Example 68, N-Cyclopropyl-N-[1-(5-ethyl-pyrazin-2-yl)-piperidin-4-yl]-3-fluoro-4-oxazol-5-yl-benzamide]",211
12,"CC(C)c1noc(N2CCC(N(C(=O)c3cc(F)c(-c4cnco4)c(F)c3)C3CC3)CC2)n1 [Example 69, N-Cyclopropyl-3,5-difluoro-N-[1-(3-isopropyl-[1,2,4]oxadiazol-5-yl)-piperidin-4-yl]-4-oxazol-5-yl-benzamide]",198
13,"Cc1cnc(N2CCC(N(C(=O)c3ccc(-c4cnco4)c(F)c3)C3CC3)CC2)nc1 [Example 70, N-Cyclopropyl-3-fluoro-N-[1-(5-methyl-pyrimidin-2-yl)-piperidin-4-yl]-4-oxazol-5-yl-benzamide]",191
14,"O=C(c1ccc(-c2cnco2)cc1)N(C1CC1)C1CCN(c2ncc(Br)cc2F)CC1 [Example 71, N-(5′-Bromo-3′-fluoro-3,4,5,6-tetrahydro-2H-[1,2′]bipyridinyl-4-yl)-N-cyclopropyl-4-oxazol-5-yl-benzamide]",11
15,"O=C(c1ccc(-c2cnco2)cc1)N(C1CC1)C1CCN(c2ccc(C3CC3)nn2)CC1 [Example 72, N-Cyclopropyl-N-[1-(6-cyclopropyl-pyridazin-3-yl)-piperidin-4-yl]-4-oxazol-5-yl-benzamide]",864
16,"Cc1cnc(N2CCC(N(C(=O)c3ccc(-c4cnco4)cc3)C3CC3)CC2)c(F)c1 [Example 73, N-Cyclopropyl-N-(3′-fluoro-5′-methyl-3,4,5,6-tetrahydro-2H-[1,2′]bipyridinyl-4-yl)-4-oxazol-5-yl-benzamide]",38

row,SMILES,EC50 [nM]
1,"O=C(c1ccc(-c2cnco2)cc1)N(C1CC1)C1CCN(c2ncc(C(F)(F)F)cc2F)CC1 [Example 74, N-Cyclopropyl-N-(3′-fluoro-5′-trifluoromethyl-3,4,5,6-tetrahydro-2H-[1,2′]bipyridinyl-4-yl)-4-oxazol-5-yl-benzamide]",8
2,"CCCOc1cnc(N2CCC(N(C(=O)c3ccc(-c4cnco4)cc3)C3CC3)CC2)nc1 [Example 75, N-Cyclopropyl-4-oxazol-5-yl-N-[1-(5-propoxy-pyrimidin-2-yl)-piperidin-4-yl]-benzamide]",87
3,"CCOc1cnc(N2CCC(N(C(=O)c3ccc(-c4cnco4)cc3)C3CC3)CC2)nc1 [Example 76, N-Cyclopropyl-N-[1-(5-ethoxy-pyrimidin-2-yl)-piperidin-4-yl]-4-oxazol-5-yl-benzamide]",165
4,"CC(C)Oc1cnc(N2CCC(N(C(=O)c3ccc(-c4cnco4)cc3)C3CC3)CC2)nc1 [Example 77, N-Cyclopropyl-N-[1-(5-isopropoxy-pyrimidin-2-yl)-piperidin-4-yl]-4-oxazol-5-yl-benzamide]",115
5,"O=C(c1ccc(-c2cnco2)cc1)N(C1CC1)C1CCN(c2cnc(C3CC3)cn2)CC1 [Example 78, N-Cyclopropyl-N-[1-(5-cyclopropyl-pyrazin-2-yl)-piperidin-4-yl]-4-oxazol-5-yl-benzamide]",43
6,"O=C(c1ccc(-c2cnco2)cc1)N(C1CC1)C1CCN(c2nnc(-c3ccccc3)s2)CC1 [Example 79, N-Cyclopropyl-4-oxazol-5-yl-N-[1-(5-phenyl-[1,3,4]thiadiazol-2-yl)-piperidin-4-yl]-benzamide]",75
7,"O=C(c1ccc(-c2cnco2)cc1)N(C1CC1)C1CCN(c2ccc(Cl)cn2)CC1 [Example 80, N-(5′-Chloro-3,4,5,6-tetrahydro-2H-[1,2′]bipyridinyl-4-yl)-N-cyclopropyl-4-oxazol-5-yl-benzamide]",179
8,"COC(=O)c1cnc(N2CCC(N(C(=O)c3ccc(-c4cnco4)cc3)C3CC3)CC2)cn1 [Example 81, 5-{4-[Cyclopropyl-(4-oxazol-5-yl-benzoyl)-amino]-piperidin-1-yl}-pyrazine-2-carboxylic acid methyl ester]",498
9,"Cc1cnc(C)c(N2CCC(N(C(=O)c3ccc(-c4cnco4)cc3)C3CC3)CC2)n1 [Example 82, N-Cyclopropyl-N-[1-(3,6-dimethyl-pyrazin-2-yl)-piperidin-4-yl]-4-oxazol-5-yl-benzamide]",116
10,"O=C(c1ccc(-c2cnco2)cc1)N(C1CC1)C1CCN(c2cnc(I)cn2)CC1 [Example 83, N-Cyclopropyl-N-[1-(5-iodo-pyrazin-2-yl)-piperidin-4-yl]-4-oxazol-5-yl-benzamide]",10
11,"COC(=O)c1cnc(N2CCC(N(C(=O)c3ccc(-c4cnco4)cc3)C3CC3)CC2)nc1 [Example 84, 2-{4-[Cyclopropyl-(4-oxazol-5-yl-benzoyl)-amino]-piperidin-1-yl}-pyrimidine-5-carboxylic acid methyl ester]",116
12,"O=C(c1ccc(-c2cnco2)cc1)N(C1CC1)C1CCN(c2cnccn2)CC1 [Example 85, N-Cyclopropyl-4-oxazol-5-yl-N-(1-pyrazin-2-yl-piperidin-4-yl)-benzamide]",449
13,"N#Cc1cnc(N2CCC(N(C(=O)c3ccc(-c4cnco4)cc3)C3CC3)CC2)cn1 [Example 86, N-[1-(5-Cyano-pyrazin-2-yl)-piperidin-4-yl]-N-cyclopropyl-4-oxazol-5-yl-benzamide]",139
14,"O=C(c1ccc(-c2cnco2)cc1)N(C1CC1)C1CCN(c2nnc(C(F)(F)F)s2)CC1 [Example 87, N-Cyclopropyl-4-oxazol-5-yl-N-[1-(5-trifluoromethyl-[1,3,4]thiadiazol-2-yl)-piperidin-4-yl]-benzamide]",25
15,"O=C(c1ccc(-c2cnco2)cc1)N(C1CC1)C1CCN(c2ncc(C3CC3)cn2)CC1 [Example 88, N-Cyclopropyl-N-[1-(5-cyclopropyl-pyrimidin-2-yl)-piperidin-4-yl]-4-oxazol-5-yl-benzamide]",71
